Reference: ChEMBL document CHEMBL2177041, “Identification of new potent GPR119 agonists by combining virtual screening and combinatorial chemistry” (J Med Chem, 2012)

Assays:
[1] = target: T1, Glucose-dependent insulinotropic receptor (Homo sapiens, UniProt Q8TDV5); assay: Agonist activity at human GPR119 expressed in MIN6 cells assessed as intracellular cAMP level after 45 mins by ALPHAscreen cAMP assay; type: functional, cell-based
T1 sequence (Q8TDV5 whole entry): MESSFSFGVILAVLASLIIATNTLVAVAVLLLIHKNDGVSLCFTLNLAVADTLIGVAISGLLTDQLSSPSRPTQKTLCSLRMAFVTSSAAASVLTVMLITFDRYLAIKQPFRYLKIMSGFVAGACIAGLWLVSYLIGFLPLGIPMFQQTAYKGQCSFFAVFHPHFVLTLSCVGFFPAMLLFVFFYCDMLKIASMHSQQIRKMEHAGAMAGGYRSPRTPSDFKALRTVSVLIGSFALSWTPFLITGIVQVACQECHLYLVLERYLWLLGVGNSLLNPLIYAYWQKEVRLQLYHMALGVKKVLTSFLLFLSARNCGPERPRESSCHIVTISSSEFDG

[2] = target: T2, Glucose-dependent insulinotropic receptor (Homo sapiens) (UniProt Q8TDV5); assay: Intrinsic activity at human GPR119 expressed in MIN6 cells assessed as intracellular cAMP level after 45 mins by ALPHAscreen cAMP assay relative to N-(4-methanesulfonylphenyl)-5-nitro-6-[4-(phenylsulfanyl)piperidin-1-yl]pyrimidin-4-amine; type: functional, cell-based
T2 sequence (whole entry): T1 sequence (Q8TDV5 whole entry)

EC50 [1] [nM]	Intrinsic activity [2] [%]	Structure (SMILES)
21	160	C[S+]([O-])c1cc(F)c(NC(=O)C2=NOC3(CCN(c4nc(-c5ccccc5)no4)CC3)C2)cc1F (stereo not drawn)
800	165	CC(C)(C)OC(=O)N1CCC2(CCN(C(=O)Nc3ccc(S(C)(=O)=O)cc3Br)CC2)CC1
93	170	CC(C)(C)OC(=O)N1CCC2(CC1)CC(C(=O)Nc1cc(F)c(C#N)cc1F)=NO2
30	173	N#Cc1cc(F)c(NC(=O)C2=NOC3(CCN(c4nc(-c5ccccc5)no4)CC3)C2)cc1F
